Measured values reported in US10793522B2, “Sulfonamides as inhibitors of the uptake of extracellular citrate” (Boehringer Ingelheim International GmbH, priority 2016, dated 2020).

Tests used:
hSLC13A5 [1] = target: T1, hSLC13A5 (Homo sapiens, UniProt Q86YT5); assay: Recombinant hSLC13A5/14C-citrate uptake assay; format: cell-based; conditions: HEK293 Flp-In cells over-expressing hSLC13A5; WGA-PVT SPA beads; 14C-citrate approx. 2 μM; 4 h
Text: (5) Recombinant hSLC13A5/^14C-Citrate Uptake Assay
The human embryonic kidney 293 (HEK 293)-Flp-In cells (293Flp-In-hSLC13A5) over-expressing hSLC13A5 transporter were cloned: The originating plasmid pcDNA3.1-hSLC13A5 containing hSLC13A5 was synthesized at GeneArt. The cDNA for hSLC13A5 was taken from this plasmid by means of PCR amplification using primers with added HindIII (N-terminal) and XhoI (C-terminal) restriction sites and sub-cloned in frame into pcDNA5/FRT from Invitrogen using the respective restriction enzymes. HEK293 Flp-In cells from Invitrogen were stably co-transfected using the pcDNA/FRT-hSLC13A5 plasmid as well as the pOG44 plasmid.
HEK 293-Flp-In cells are used that stably over-express hSLC13A5 transporter which is responsible for the uptake of citrate into these cells.
The uptake of ^14C-citrate into the 293Flp-In-hSLC13A5 cells is monitored using the WGA-PVT SPA (wheat germ agglutinin-polyvinyltoluene scintillation proximity assay) beads that bind to the 293Flp-In cells due to their WGA-PVT surface. This assay format is based on the imported radioactive citrate brought into proximity with the SPA beads by virtue of the biological processes within the cells. The radioactive decay is converted into a light signal that can be measured using e.g. the TopCount plate reader.
(§1) Method: ^14C-Citrate Uptake Assay
Test Compound Dilutions (2Fold-Concentrated):
Starting from 10 mM stock solutions in 100% DMSO, compounds are diluted in pure DMSO using the appropriate dilution steps.
Prior to the uptake assay, 200 μL assay medium (lx HBSS (with Ca^2+ and Mg^2+, w/o Phenolred), contains 5.56 mM D(+)-Glucose)+19.44 mM D(+)-Glucose (final concentration of D(+)-Glucose is 25 mM))+4.8 μL compound solution (or pure DMSO for non-inhibited control wells) are mixed (final DMSO concentration in the assay: 1% (v/v)).
After preparing the 2fold-concentrated test compound dilutions, 50 μL are pipetted to each well of white OptiPlates-96 and incubated at 37° C. in an incubator.
^14C-Citrate Working Solution (Volumes Required Per 96-Well):
The 293Flp-In-hSLC13A5 cells are cultivated in cell culture medium (DMEM+10% fetal calf serum+100 μg/mL Hygromycin B). The medium of the confluent cultures is discarded and the cells are washed with DPBS (w/o Mg^2+ w/o Ca^2+). The cells are detached by the addition of 2.0 mL Accumax per 75 cm^2 culture flask for up to 3 minutes at 37° C. and resuspended in 10 mL assay medium. After cell counting, 50,000 cells/well are administered in a volume of 50 μL into the white OptiPlates-96 containing the respective test compound concentrations. Following a 20 min incubation at 37° C. in the cell culture incubator, 20 μL of ^14C-citrate working solution is added to each well (final volume per well: 120 μL; final ^14C-citrate concentration: approx. 2 μM/well).
After incubation for 4 h at 37° C. in a humid cell culture incubator and the addition of 30 μL of WGA-PVT SPA beads to each well (0.25 mg/well), the plates are sealed on the top using a transparent plastic foil. Incubate the plates for 1 h by room temperature and gentle shaking.
After incubation, the plate is placed into the TopCount NXT HTS and the signal is recorded.
The performance of the test compounds is calculated as follows:
Wells containing cells incubated with 1% DMSO only deliver values for the non-inhibited ^14C-citrate uptake into 293Flp-In-hSLC13A5 cells (100% CTL). Wells containing cells which have received 30 mM non-labelled potassium citrate solution in addition to the ^14C-citrate working solution deliver values for the background (0% CTL).
(§2) The IC50 values of the compounds are calculated in IDBS XLfit by sigmoidal dose-response (variable slope).

hSLC13A5 [2] = target: T1, hSLC13A5; assay: HepG2/14C-citrate uptake assay; format: cell-based; parameters: HepG2 cells endogenously express hSLC13A5 transporter which is responsible for the uptake of citrate into these cells; endogenous in cells; host or cells: HepG2; conditions: HepG2 cells endogenously expressing hSLC13A5; Cytostar-T; 14C-citrate ~1.8 μM; incubation over night
Text: (4) HepG2/^14C-Citrate Uptake Assay
HepG2 cells endogenously expressing hSLC13A5 were obtained from the Wistar Institute (Knowles et al., Science 1980, 209, 497-499).
HepG2 cells endogenously express hSLC13A5 transporter which is responsible for the uptake of citrate into these cells. […] The uptake of ^14C-citrate into HepG2 cells is monitored using the Cytostar-T assay. This assay format is based on the imported radioactive citrate brought into proximity with the scintillant contained within the base of the plate by virtue of the biological processes within the cells. The radioactive decay is converted to a light signal based on the integration of the scintillation matrix into the assay plate.
as §1
Starting from 10 mM stock solutions in 100% DMSO, compounds are diluted in pure DMSO using the appropriate dilution steps. Prior to the uptake assay, 400 μL assay medium+4.8 μL compound solution (or pure DMSO for non-inhibited control wells) are mixed (final DMSO concentration in the assay: 1% (v/v)) ^14C-citrate working solution (volumes required per 96-well):
The HepG2 cells are cultivated in cell culture medium (EMEM+10% fetal calf serum+1×NEAA and 10 mM L-Glutamin) For the assay, the medium of the confluent cultures is discarded and the cells are washed with DPBS w/o Mg^2+ w/o Ca^2+. The cells are detached by the addition of 1.0 mL 2× Trypsin in DPBS w/o Mg^2+ w/o Ca^2+ with 7.5 mM EDTA per 75 cm^2 culture flask for up to 3 minutes at 37° C. and resuspended in 10 mL cell culture medium. Following cell counting, 100,000 cells/well are seeded in a volume of 200 μL into Cytostar-T Scintillating 96-well microplates. After overnight incubation in a humid cell culture incubator at 37° C., 5% CO2, the cell culture medium is carefully aspirated and the cells are incubated with 200 μL prewarmed (37° C.) assay medium (50% DMEM+50% Ham's F-12+15 mM HEPES (pH 7.4) (medium contains 15.5 m M D(+)-glucose) per well for at least 1 h prior to the experiment.
Immediately prior to uptake assay, the assay medium is carefully removed and 100 μL test compound dilution is added to each well (n=3).
Following a 20 min incubation at 37° C. in the cell culture incubator, 20 μL of ^14C-citrate working solution is added to each well (final volume per well: 120 μL; final ^14C-citrate concentration ˜1.8 μM/well)).
After incubation over night at 37° C. in the cell culture incubator, the plates are sealed on the top using a transparent plastic foil and on the bottom using a white plastic foil. Following the sealing, the plate is placed into the TopCount NXT HTS and the signal is recorded.
as §2

T1 sequence (Q86YT5 whole entry): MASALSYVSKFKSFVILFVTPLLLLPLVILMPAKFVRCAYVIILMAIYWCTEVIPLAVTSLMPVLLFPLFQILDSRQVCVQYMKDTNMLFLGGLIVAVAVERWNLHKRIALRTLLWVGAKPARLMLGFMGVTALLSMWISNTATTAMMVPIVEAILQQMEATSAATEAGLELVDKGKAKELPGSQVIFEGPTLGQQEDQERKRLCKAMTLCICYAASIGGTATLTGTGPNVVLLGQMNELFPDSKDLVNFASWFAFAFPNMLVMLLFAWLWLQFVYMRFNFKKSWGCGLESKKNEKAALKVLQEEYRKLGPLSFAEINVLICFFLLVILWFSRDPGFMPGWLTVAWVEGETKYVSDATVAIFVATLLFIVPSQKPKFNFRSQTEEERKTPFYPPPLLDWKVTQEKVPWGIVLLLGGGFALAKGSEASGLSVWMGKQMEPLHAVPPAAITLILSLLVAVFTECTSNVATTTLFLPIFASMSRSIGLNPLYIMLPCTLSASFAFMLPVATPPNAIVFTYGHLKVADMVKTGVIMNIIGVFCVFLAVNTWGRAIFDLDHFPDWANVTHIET

Row | SMILES | IC50 (hSLC13A5 [1]) [µM] | IC50 (hSLC13A5 [2]) [µM]
1 | CCc1ccc(CNC(=O)C2CCN(S(=O)(=O)c3cc(C)cc(Br)c3)CC2)nc1 [(I-59)] | 0.098 | 0.027
2 | COc1ncccc1CNC(=O)C1CCN(S(=O)(=O)c2cc(C)cc(Br)c2)CC1 [(I-58)] | 0.837 | 0.168
3 | Cc1cc(Br)cc(S(=O)(=O)N2CCC(C(=O)NCc3cccnc3)CC2)c1 [(I-60)] | 0.918 | 0.422
4 | Cc1cc(Br)cc(S(=O)(=O)N2CCC(C(=O)NCc3ccc(F)cn3)CC2)c1 [(I-62)] | 0.232 | 0.099
5 | CCc1ccc(CNC(=O)C2CCN(S(=O)(=O)c3cc(Br)cc(Br)c3)CC2)nc1 [(I-31)] | 0.041 | 0.066
6 | CCc1ccc(CNC(=O)C2CCN(S(=O)(=O)c3cc(Cl)cc(Cl)c3)CC2)nc1 [(I-17)] | 0.138 | 0.13
7 | CCOc1cc(Cl)cc(S(=O)(=O)N2CCC(C(=O)NCc3ccc(C#N)cc3F)CC2)c1 [(I-50)] | 0.127 | 0.073
8 | COc1cc(Cl)cc(S(=O)(=O)N2CCC(C(=O)NCc3ccc(F)cn3)CC2)c1 [(I-56)] | 0.436 | 0.292
9 | Cc1cc(C)cc(S(=O)(=O)N2CCC(C(=O)NCc3ncc(C)s3)CC2)c1 [(I-46)] | 0.398 | 0.202
10 | O=C(NCc1ccc(F)cn1)C1CCN(S(=O)(=O)c2cc(Br)cc(Br)c2)CC1 [(I-35)] | 0.054 | 0.147
